Source: patent US20230085307A1, “PYRIDAZINONE COMPOUND AND HERBICIDE” (NISSAN CHEMICAL CORPORATION, priority 2019, published 2023)

Experiments:
[1] = test system: late watergrass; assay: Test Example 1: herbicidal activity, application before weed generation under submerged conditions (Table 16, symbol A); type: in vivo, late watergrass (Echinochloa oryzicola); details: amount of applied herbicide 320 g/ha
Method in brief: (§1)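 Alluvial soil was flooded to 4 cm depth, weed seeds were sown mixed and 2.5-leaf rice seedlings were transplanted. On sowing day, the compound's emulsion, diluted in water to a set dose, was applied to the water surface. Plants grew at 25–30 °C and were scored 0–5 after three weeks.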

[2] = test system: Japanese bulrush; assay: Test Example 1: herbicidal activity, application before weed generation under submerged conditions (Table 16, symbol B); type: in vivo, Japanese bulrush (Schoenoplectus juncoides); details: amount of applied herbicide 320 g/ha
Method in brief: as §1

[3] = test system: oval-leafed pondweed; assay: Test Example 1: herbicidal activity, application before weed generation under submerged conditions (Table 16, symbol C); type: in vivo, oval-leafed pondweed (Monochoria vaginalis); details: amount of applied herbicide 320 g/ha
Method in brief: as §1

[4] = test system: barnyard grass; assay: Test Example 3: herbicidal effect by foliage application, Wagner pot (Table 18, symbol H); type: in vivo, barnyard grass (Echinochloa crus-galli); details: 320 g/ha
Method in brief: (§2)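 Plants were sown in alluvial soil held under 0.1–0.5 cm standing water and grown 14 days in a greenhouse at 25–30 °C. An emulsifiable formulation, water-diluted to the set dose, was then sprayed onto the foliage, and effects were scored three weeks later using previously defined criteria.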

[5] = test system: Chinese sprangletop; assay: Test Example 3: herbicidal effect by foliage application, Wagner pot (Table 18, symbol D); type: in vivo, chinese sprangletop (Leptochloa chinensis); details: 320 g/ha
Method in brief: as §2

[6] = test system: rice flat sedge; assay: Test Example 3: herbicidal effect by foliage application, Wagner pot (Table 18, symbol E); type: in vivo, rice flat sedge (Cyperus iria); details: 320 g/ha
Method in brief: as §2

[7] = test system: southern crabgrass; assay: Test Example 4: herbicidal effect by soil treatment (Table 19, symbol F); type: in vivo, southern crabgrass (Digitaria ciliaris); details: amount of applied herbicide 320 g/ha
Method in brief: (§3)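 Seeds were sown in sterilized diluvial soil and covered with about 1.5 cm of soil. An emulsion formulation diluted with water to a predetermined herbicide amount was sprayed evenly onto the soil surface. Plants grew in a greenhouse at 25° C. to 30° C., and the effect was scored three weeks after application using criteria from an earlier test.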

[8] = test system: green foxtail; assay: Test Example 4: herbicidal effect by soil treatment (Table 19, symbol G); type: in vivo, green foxtail (Setaria viridis); details: amount of applied herbicide 320 g/ha
Method in brief: as §3

[9] = test system: barnyard grass; assay: Test Example 4: herbicidal effect by soil treatment (Table 19, symbol H); type: in vivo, barnyard grass (Echinochloa crus-galli); details: amount of applied herbicide 320 g/ha
Method in brief: as §3

[10] = test system: wild oat; assay: Test Example 4: herbicidal effect by soil treatment (Table 19, symbol I); type: in vivo, wild oat (Avena fatua); details: amount of applied herbicide 320 g/ha
Method in brief: as §3

[11] = test system: blackgrass; assay: Test Example 4: herbicidal effect by soil treatment (Table 19, symbol J); type: in vivo, blackgrass (Alopecurus myosuroides); details: amount of applied herbicide 320 g/ha
Method in brief: as §3

[12] = test system: Italian ryegrass; assay: Test Example 4: herbicidal effect by soil treatment (Table 19, symbol K); type: in vivo, Italian ryegrass (Lolium multiflorum); details: amount of applied herbicide 320 g/ha
Method in brief: as §3

[13] = test system: windgrass; assay: Test Example 4: herbicidal effect by soil treatment (Table 19, symbol L); type: in vivo, windgrass (Apera spica-venti); details: amount of applied herbicide 320 g/ha
Method in brief: as §3

[14] = test system: velvetleaf; assay: Test Example 4: herbicidal effect by soil treatment (Table 19, symbol M); type: in vivo, velvetleaf (Abutilon theophrasti); details: amount of applied herbicide 320 g/ha
Method in brief: as §3

[15] = test system: redroot pigweed; assay: Test Example 4: herbicidal effect by soil treatment (Table 19, symbol N); type: in vivo, redroot pigweed (Amaranthus retroflexus); details: amount of applied herbicide 320 g/ha
Method in brief: as §3

[16] = test system: lambsquarters; assay: Test Example 4: herbicidal effect by soil treatment (Table 19, symbol O); type: in vivo, lambsquarters (Chenopodium album); details: amount of applied herbicide 320 g/ha
Method in brief: as §3

[17] = test system: chickweed; assay: Test Example 4: herbicidal effect by soil treatment (Table 19, symbol P); type: in vivo, common chickweed (Stellaria media); details: amount of applied herbicide 320 g/ha
Method in brief: as §3

[18] = test system: false cleavers; assay: Test Example 4: herbicidal effect by soil treatment (Table 19, symbol Q); type: in vivo, false cleavers (Galium spurium); details: amount of applied herbicide 320 g/ha
Method in brief: as §3

[19] = test system: persian speedwell; assay: Test Example 4: herbicidal effect by soil treatment (Table 19, symbol R); type: in vivo, Persian speedwell (Veronica persica); details: amount of applied herbicide 320 g/ha
Method in brief: as §3

[20] = test system: southern crabgrass; assay: Test Example 5: herbicidal effect by foliage application, plastic box (Table 20, symbol F); type: in vivo, southern crabgrass (Digitaria ciliaris); details: foliage application, 320 g/ha, three weeks after application
Method in brief: (§4)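 Plants sown in sterilized diluvial soil and grown 14 days in a greenhouse at 25° C to 30° C, then sprayed on the foliage with the compound's emulsion diluted in water to a predetermined herbicide amount. Injury to weeds and crops scored three weeks after application on a visual rating scale.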

[21] = test system: green foxtail; assay: Test Example 5: herbicidal effect by foliage application, plastic box (Table 20, symbol G); type: in vivo, green foxtail (Setaria viridis); details: foliage application, 320 g/ha, three weeks after application
Method in brief: as §4

[22] = test system: barnyard grass; assay: Test Example 5: herbicidal effect by foliage application, plastic box (Table 20, symbol H); type: in vivo, barnyard grass (Echinochloa crus-galli); details: foliage application, 320 g/ha, three weeks after application
Method in brief: as §4

[23] = test system: wild oat; assay: Test Example 5: herbicidal effect by foliage application, plastic box (Table 20, symbol I); type: in vivo, wild oat (Avena fatua); details: foliage application, 320 g/ha, three weeks after application
Method in brief: as §4

[24] = test system: blackgrass; assay: Test Example 5: herbicidal effect by foliage application, plastic box (Table 20, symbol J); type: in vivo, blackgrass (Alopecurus myosuroides); details: foliage application, 320 g/ha, three weeks after application
Method in brief: as §4

[25] = test system: Italian ryegrass; assay: Test Example 5: herbicidal effect by foliage application, plastic box (Table 20, symbol K); type: in vivo, Italian ryegrass (Lolium multiflorum); details: foliage application, 320 g/ha, three weeks after application
Method in brief: as §4

[26] = test system: windgrass; assay: Test Example 5: herbicidal effect by foliage application, plastic box (Table 20, symbol L); type: in vivo, windgrass (Apera spica-venti); details: foliage application, 320 g/ha, three weeks after application
Method in brief: as §4

[27] = test system: velvetleaf; assay: Test Example 5: herbicidal effect by foliage application, plastic box (Table 20, symbol M); type: in vivo, velvetleaf (Abutilon theophrasti); details: foliage application, 320 g/ha, three weeks after application
Method in brief: as §4

[28] = test system: redroot pigweed; assay: Test Example 5: herbicidal effect by foliage application, plastic box (Table 20, symbol N); type: in vivo, redroot pigweed (Amaranthus retroflexus); details: foliage application, 320 g/ha, three weeks after application
Method in brief: as §4

[29] = test system: lambsquarters; assay: Test Example 5: herbicidal effect by foliage application, plastic box (Table 20, symbol O); type: in vivo, lambsquarters (Chenopodium album); details: foliage application, 320 g/ha, three weeks after application
Method in brief: as §4

[30] = test system: chickweed; assay: Test Example 5: herbicidal effect by foliage application, plastic box (Table 20, symbol P); type: in vivo, common chickweed (Stellaria media); details: foliage application, 320 g/ha, three weeks after application
Method in brief: as §4

[31] = test system: false cleavers; assay: Test Example 5: herbicidal effect by foliage application, plastic box (Table 20, symbol Q); type: in vivo, false cleavers (Galium spurium); details: foliage application, 320 g/ha, three weeks after application
Method in brief: as §4

[32] = test system: persian speedwell; assay: Test Example 5: herbicidal effect by foliage application, plastic box (Table 20, symbol R); type: in vivo, Persian speedwell (Veronica persica); details: foliage application, 320 g/ha, three weeks after application
Method in brief: as §4

CCCC(=O)Oc1c(C)nn(C)c(=O)c1-c1c(-c2ccc(F)cc2OC)sc2cc(Cl)ccc12 [3-044]
Herbicidal effect, A: late watergrass [1]: 3 (Herbicidal rate of 40% or more and less than 70%) | Herbicidal effect, B: Japanese bulrush [2]: 0 (Herbicidal rate of 5% or less (almost no effect)) | Herbicidal effect, C: oval-leafed pondweed [3]: 0 (Herbicidal rate of 5% or less (almost no effect)) | herbicidal effect on barnyard grass (H) [4]: 5 (Herbicidal rate of 90% or more (almost completely withered)) | herbicidal effect on Chinese sprangletop (D) [5]: 0 (Herbicidal rate of 5% or less (almost no effect)) | herbicidal effect on rice flat sedge (E) [6]: 3 (Herbicidal rate of 40% or more and less than 70%) | F: southern crabgrass, herbicidal effect grade [7]: 1 (Herbicidal rate of 5% or more and less than 20%) | G: green foxtail, herbicidal effect grade [8]: 1 (Herbicidal rate of 5% or more and less than 20%) | H: barnyard grass, herbicidal effect grade [9]: 3 (Herbicidal rate of 40% or more and less than 70%) | I: wild oat, herbicidal effect grade [10]: 0 (Herbicidal rate of 5% or less (almost no effect)) | J: blackgrass, herbicidal effect grade [11]: 0 (Herbicidal rate of 5% or less (almost no effect)) | K: Italian ryegrass, herbicidal effect grade [12]: 0 (Herbicidal rate of 5% or less (almost no effect)) | L: windgrass, herbicidal effect grade [13]: 3 (Herbicidal rate of 40% or more and less than 70%) | M: velvetleaf, herbicidal effect grade [14]: 2 (Herbicidal rate of 20% or more and less than 40%) | N: redroot pigweed, herbicidal effect grade [15]: 4 (Herbicidal rate of 70% or more and less than 90%) | O: lambsquarters, herbicidal effect grade [16]: 4 (Herbicidal rate of 70% or more and less than 90%) | P: chickweed, herbicidal effect grade [17]: 4 (Herbicidal rate of 70% or more and less than 90%) | Q: false cleavers, herbicidal effect grade [18]: 4 (Herbicidal rate of 70% or more and less than 90%) | R: persian speedwell, herbicidal effect grade [19]: 3 (Herbicidal rate of 40% or more and less than 70%) | F: southern crabgrass, herbicidal effect grade [20]: 3 (Herbicidal rate of 40% or more and less than 70%) | G: green foxtail, herbicidal effect grade [21]: 4 (Herbicidal rate of 70% or more and less than 90%) | H: barnyard grass, herbicidal effect grade [22]: 5 (Herbicidal rate of 90% or more (almost completely withered)) | I: wild oat, herbicidal effect grade [23]: 4 (Herbicidal rate of 70% or more and less than 90%) | J: blackgrass, herbicidal effect grade [24]: 5 (Herbicidal rate of 90% or more (almost completely withered)) | K: Italian ryegrass, herbicidal effect grade [25]: 0 (Herbicidal rate of 5% or less (almost no effect)) | L: windgrass, herbicidal effect grade [26]: 5 (Herbicidal rate of 90% or more (almost completely withered)) | M: velvetleaf, herbicidal effect grade [27]: 4 (Herbicidal rate of 70% or more and less than 90%) | N: redroot pigweed, herbicidal effect grade [28]: 3 (Herbicidal rate of 40% or more and less than 70%) | O: lambsquarters, herbicidal effect grade [29]: 3 (Herbicidal rate of 40% or more and less than 70%) | P: chickweed, herbicidal effect grade [30]: 5 (Herbicidal rate of 90% or more (almost completely withered)) | Q: false cleavers, herbicidal effect grade [31]: 4 (Herbicidal rate of 70% or more and less than 90%) | R: persian speedwell, herbicidal effect grade [32]: 3 (Herbicidal rate of 40% or more and less than 70%)
